Assay results published in ChEMBL document CHEMBL3046330, “Synthesis and biological activity of hydrazidehydrazones and their corresponding 3-acetyl-2,5-disubstituted-2,3-dihydro-1,3,4-oxadiazoles” (Med Chem Res, 2012).
Values after ≈ are worked out from the molar mass of the structure shown. Active and inactive are the calls of the source. The calls are words filed in the database; no cut-off is given here.

Columns and labels:
[1] = test system: SK-MEL; assay: Cytotoxicity against Homo sapiens (human) SK-MEL cells assessed as cell viability up to 25 ug/ml after 48 hr by neutral red assay; assay type: functional, cell-based
[2] = test system: Candida albicans; assay: Antifungal activity against Candida albicans NRRL Y-12983 after 24 hr by NCCLS broth microdilution method; assay type: functional; details: NRRL Y-12983, 24 h
[3] = target: T1, Nitric oxide synthase, inducible (Mus musculus, UniProt P29477); assay: Inhibition of iNOS in Mus musculus (mouse) RAW264.7 cells assessed as inhibition of LPS-induced nitrite production incubated for 30 min prior to LPS challenge measured after 24 hr by Griess assay; assay type: cell-based
T1 sequence (P29477 whole entry): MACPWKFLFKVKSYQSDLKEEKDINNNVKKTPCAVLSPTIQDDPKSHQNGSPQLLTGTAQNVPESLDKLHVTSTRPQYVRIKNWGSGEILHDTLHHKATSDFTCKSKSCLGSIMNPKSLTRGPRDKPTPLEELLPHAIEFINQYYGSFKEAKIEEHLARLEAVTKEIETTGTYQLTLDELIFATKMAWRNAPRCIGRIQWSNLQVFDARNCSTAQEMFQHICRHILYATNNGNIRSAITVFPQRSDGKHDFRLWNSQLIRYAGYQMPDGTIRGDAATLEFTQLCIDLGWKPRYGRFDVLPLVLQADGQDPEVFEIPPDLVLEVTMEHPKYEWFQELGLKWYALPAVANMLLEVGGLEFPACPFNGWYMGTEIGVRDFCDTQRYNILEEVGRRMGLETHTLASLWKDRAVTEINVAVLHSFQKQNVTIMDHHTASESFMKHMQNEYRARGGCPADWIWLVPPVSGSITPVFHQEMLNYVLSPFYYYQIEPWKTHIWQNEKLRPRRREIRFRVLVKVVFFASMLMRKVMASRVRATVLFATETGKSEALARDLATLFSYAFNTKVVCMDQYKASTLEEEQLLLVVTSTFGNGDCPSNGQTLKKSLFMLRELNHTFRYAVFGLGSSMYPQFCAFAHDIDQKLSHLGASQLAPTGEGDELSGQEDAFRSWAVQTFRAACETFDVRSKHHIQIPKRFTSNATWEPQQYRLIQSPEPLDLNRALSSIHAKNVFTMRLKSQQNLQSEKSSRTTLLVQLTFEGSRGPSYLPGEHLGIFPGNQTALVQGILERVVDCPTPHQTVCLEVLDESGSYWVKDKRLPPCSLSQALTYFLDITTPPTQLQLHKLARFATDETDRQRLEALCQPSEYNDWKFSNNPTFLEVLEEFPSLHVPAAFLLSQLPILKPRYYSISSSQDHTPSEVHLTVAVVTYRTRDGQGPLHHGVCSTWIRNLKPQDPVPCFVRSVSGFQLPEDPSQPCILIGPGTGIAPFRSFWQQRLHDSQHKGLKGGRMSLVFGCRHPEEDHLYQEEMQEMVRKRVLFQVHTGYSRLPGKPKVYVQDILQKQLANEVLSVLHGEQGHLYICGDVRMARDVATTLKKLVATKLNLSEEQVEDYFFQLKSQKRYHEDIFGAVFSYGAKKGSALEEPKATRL

[4] = test system: RAW264.7; assay: Cytotoxicity against Mus musculus (mouse) RAW264.7 cells up to 25 ug/ml; assay type: cell-based
[5] = test system: Colletotrichum fragariae; assay: Antifungal activity against Colletotrichum fragariae at 0.3 to 30 uM after 48 to 72 hr by broth microdilution method; assay type: functional, organism-based
[6] = test system: Candida tropicalis; assay: Antifungal activity against Candida tropicalis NRRL Y-12968 at 2000 ug/ml by agar diffusion method; assay type: functional; details: read-out: IZ
[7] = test system: SW1353; assay: Inhibition of PMA-induced NFkappaB activity in Homo sapiens (human) SW1353 cells up to 25 ug/ml incubated for 30 min followed by PMA induction for 8 hr by luciferase reporter gene assay; assay type: cell-based
[8] = Cytotoxicity against Sus scrofa (pig) LLC-PK11 cells assessed as cell viability up to 25 ug/ml after 48 hr by neutral red assay; assay type: cell-based; details: llc-pk11, 48 h
[9] = test system: HL-60; assay: Antioxidant activity in PMA-stimulated Homo sapiens (human) HL60 cells assessed as inhibition of intracellular ROS generation up to 25 ug/ml incubated for 30 min prior to PMA stimulation measured after 30 min by DCFH-DA assay relative to vehicle-treated control; assay type: functional, cell-based
[10] = test system: Candida albicans; assay: Antifungal activity against Candida albicans clinical isolate at 2000 ug/ml by agar diffusion method; assay type: functional; details: read-out: IZ
[11] = test system: Botrytis cinerea; assay: Antifungal activity against Botryotinia fuckeliana at 0.3 to 30 uM after 48 to 72 hr by broth microdilution method; assay type: functional, organism-based
[12] = target: Transcription factor Sp1 (Homo sapiens, UniProt P08047); assay: Inhibition of Sp1 (unknown origin) up to 25 ug/ml by luciferase reporter gene assay
[13] = test system: Nakaseomyces glabratus; assay: Antifungal activity against Candida glabrata clinical isolate after 24 hr by NCCLS broth microdilution method; assay type: functional
[14] = test system: SK-OV-3; assay: Cytotoxicity against Homo sapiens (human) SKOV3 cells assessed as cell viability up to 25 ug/ml after 48 hr by neutral red assay; assay type: functional, cell-based
[15] = test system: HL-60; assay: Cytotoxicity against Homo sapiens (human) HL60 cells up to 25 ug/ml; assay type: cell-based
[16] = test system: Vero; assay: Cytotoxicity against Chlorocebus aethiops (African green monkey) Vero cells assessed as cell viability up to 25 ug/ml after 48 hr by neutral red assay; assay type: cell-based; details: chlorocebus sabaeus
[17] = test system: Cyberlindnera jadinii; assay: Antifungal activity against Cyberlindnera jadinii NRRL Y-900 after 24 hr by NCCLS broth microdilution method; assay type: functional; details: Williopsis jadinii, NRRL Y-900, 24 h
[18] = test system: BT-549; assay: Cytotoxicity against Homo sapiens (human) BT549 cells assessed as cell viability up to 25 ug/ml after 48 hr by neutral red assay; assay type: functional, cell-based
[19] = test system: Candida tropicalis; assay: Antifungal activity against Candida tropicalis NRRL Y-12968 after 24 hr by NCCLS broth microdilution method; assay type: functional; details: NRRL Y-12968, 24 h
[20] = test system: Candida albicans; assay: Antifungal activity against Candida albicans ATCC 90028 after 24 hr by NCCLS broth microdilution method; assay type: functional; details: ATCC 90028, 24 h
[21] = test system: Candida albicans; assay: Antifungal activity against Candida albicans clinical isolate after 24 hr by NCCLS broth microdilution method; assay type: functional
[22] = test system: Candida parapsilosis; assay: Antifungal activity against Candida parapsilosis NRRL Y-12696 after 24 hr by NCCLS broth microdilution method; assay type: functional; details: Lodderomyces parapsilosis, NRRL Y-12696, 24 h
[23] = test system: KB; assay: Cytotoxicity against Homo sapiens (human) KB cells assessed as cell viability up to 25 ug/ml after 48 hr by neutral red assay; assay type: functional, cell-based
[24] = test system: Pichia kudriavzevii; assay: Antifungal activity against Pichia kudriavzevii NRRL Y-7179 after 24 hr by NCCLS broth microdilution method; assay type: functional; details: NRRL Y-7179, 24 h
[25] = target: T2, Nitric oxide synthase, inducible (Mus musculus) (UniProt P29477); assay: Inhibition of iNOS in Mus musculus (mouse) RAW264.7 cells assessed as inhibition of LPS-induced nitrite production up to 25 ug/ml incubated for 30 min prior to LPS challenge measured after 24 hr by Griess assay relative to vehicle-treated control; assay type: cell-based
T2 sequence (whole entry): T1 sequence (P29477 whole entry)

[26] = test system: HL-60; assay: Cytotoxicity against Homo sapiens (human) HL60 cells; assay type: cell-based
[27] = test system: HL-60; assay: Antioxidant activity in PMA-stimulated Homo sapiens (human) HL60 cells assessed as inhibition of intracellular ROS generation incubated for 30 min prior to PMA stimulation measured after 30 min by DCFH-DA assay; assay type: functional, cell-based

Sequence of Transcription factor Sp1 (P08047 whole entry): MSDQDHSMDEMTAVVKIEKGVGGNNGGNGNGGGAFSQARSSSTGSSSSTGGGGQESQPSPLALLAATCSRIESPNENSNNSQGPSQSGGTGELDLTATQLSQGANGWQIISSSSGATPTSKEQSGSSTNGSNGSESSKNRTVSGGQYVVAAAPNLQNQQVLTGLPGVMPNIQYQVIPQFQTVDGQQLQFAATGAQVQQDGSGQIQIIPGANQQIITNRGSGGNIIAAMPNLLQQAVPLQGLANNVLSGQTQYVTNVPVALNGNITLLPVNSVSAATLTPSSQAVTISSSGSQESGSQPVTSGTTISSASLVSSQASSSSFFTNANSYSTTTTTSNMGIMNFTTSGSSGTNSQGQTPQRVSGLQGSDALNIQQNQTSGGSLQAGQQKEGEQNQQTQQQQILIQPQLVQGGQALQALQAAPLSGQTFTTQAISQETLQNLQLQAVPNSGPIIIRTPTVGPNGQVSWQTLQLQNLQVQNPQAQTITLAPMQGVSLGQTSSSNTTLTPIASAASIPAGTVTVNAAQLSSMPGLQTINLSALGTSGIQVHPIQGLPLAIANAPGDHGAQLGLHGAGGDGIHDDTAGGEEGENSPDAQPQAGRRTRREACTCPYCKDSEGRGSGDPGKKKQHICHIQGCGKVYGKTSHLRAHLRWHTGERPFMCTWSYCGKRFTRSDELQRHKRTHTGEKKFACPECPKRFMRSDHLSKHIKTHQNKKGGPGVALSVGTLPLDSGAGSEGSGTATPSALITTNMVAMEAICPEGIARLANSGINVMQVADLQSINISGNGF

MIC [2] | inhibition (INH) [12] | MIC [13] | MIC [17] | MIC [19] | MIC [20] | MIC [21] | MIC [22] | MIC [24] | SMILES | Activity [1] | Activity [4] | zone of inhibition at 2000 µg/mL [6] | inhibition [7] | Activity [8] | inhibition [9] | zone of inhibition at 2000 µg/mL [10] | Activity [14] | Activity [16] | Activity [18] | Activity [23] | further results
500 µg/mL (≈ 1530 µM) | Not Active | 500 µg/mL (≈ 1530 µM) | 500 µg/mL (≈ 1530 µM) | 500 µg/mL (≈ 1530 µM) | 500 µg/mL (≈ 1530 µM) | 250 µg/mL (≈ 764 µM) | 1000 µg/mL (≈ 3050 µM) | 500 µg/mL (≈ 1530 µM) | CC(=O)N1N=C(c2ccc(F)cc2)OC1c1ccc(N(C)C)cc1 (stereo unspecified) | inactive | Non-toxic | 9 mm | inactive | Not Active | inactive | 9 mm | inactive | Not Active | inactive | inactive | IC50 [3]: 61.1 µM; Activity [5]: inactive; Activity [11]: inactive; Activity [15]: Non-toxic
500 µg/mL (≈ 1410 µM) | Not Active | 500 µg/mL (≈ 1410 µM) | 250 µg/mL (≈ 707 µM) | 125 µg/mL (≈ 354 µM) | 500 µg/mL (≈ 1410 µM) | 500 µg/mL (≈ 1410 µM) | 250 µg/mL (≈ 707 µM) | 125 µg/mL (≈ 354 µM) | CC(=O)N1N=C(c2ccc(F)cc2)OC1/C=C/c1ccc(N(C)C)cc1 (stereo unspecified) | inactive | Non-toxic | 9 mm | inactive | Not Active | inactive | 9 mm | inactive | Not Active | inactive | inactive | Activity [15]: Non-toxic; inhibition [25]: inactive
500 µg/mL (≈ 1760 µM) | Not Active | 1000 µg/mL (≈ 3520 µM) | 1000 µg/mL (≈ 3520 µM) | 1000 µg/mL (≈ 3520 µM) | 1000 µg/mL (≈ 3520 µM) | 500 µg/mL (≈ 1760 µM) | 1000 µg/mL (≈ 3520 µM) | 1000 µg/mL (≈ 3520 µM) | CC(=O)N1N=C(c2ccc(F)cc2)OC1c1ccccc1 (stereo unspecified) | inactive | Non-toxic | 9 mm | inactive | Not Active | inactive | 9 mm | inactive | Not Active | inactive | inactive | IC50 [3]: > 87.9 µM; IC50 [26]: 31.3 µg/mL (≈ 110 µM); Activity [5]: inactive; Activity [11]: inactive
– | – | – | – | – | – | – | – | – | Cc1c(C)c2c(c(C)c1O)CCC(C)(C(=O)O)O2 (stereo unspecified) [TROLOX] | – | – | – | – | – | – | – | – | – | – | – | IC50 [27]: 0.3 µg/mL (≈ 1.2 µM)
